Experimental data from patent US10934283B2, “COMT inhibiting methods and compositions” (LIEBER INSTITUTE FOR BRAIN DEVELOPMENT, priority 2015, dated 2021).
Where a name gives a salt, the structure may show the parent alone.

Target: T1, catechol-O-methyltransferase (COMT) (Homo sapiens, UniProt P21964)
T1 construct: M51A variant) was expressed in HEK 293F cells
T1 sequence (P21964 52-271 limits assumed): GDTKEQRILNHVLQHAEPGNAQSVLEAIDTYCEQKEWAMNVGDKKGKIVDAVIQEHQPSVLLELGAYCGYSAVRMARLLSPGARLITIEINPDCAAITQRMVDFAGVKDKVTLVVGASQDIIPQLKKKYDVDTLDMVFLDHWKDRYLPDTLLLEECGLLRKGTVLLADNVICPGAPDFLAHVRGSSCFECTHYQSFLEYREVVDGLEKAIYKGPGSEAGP
Assay: COMT inhibition assay (HTRF, production of SAH from SAM)
Type: biochemical
Details: table does not say MB-COMT or S-COMT
Experimental: The ability of compounds to inhibit the activity of catechol-O-methyltransferase (COMT) was determined by a homogenous time-resolved fluorescent (HTRF) assay (Lina et al, 2012; kit from CisBio, Codolet, France). This assay measures the production of S-adenosyl homocysteine (SAH) from the methyl donor S-adenosyl methionine. Recombinant human membrane bound COMT (MB-COMT; M51A variant) was expressed in HEK 293F cells using 293Fectin (Life Technologies, Gent, Belgium) and membranes prepared. The membranes were re-suspended in buffer (20 mM Tris/HCl pH 7; 10 mM glycerol; 2 mM MgCl2; 10 mM NaCl), aliquoted and stored at −80° C. Recombinant human soluble COMT(S-COMT), Val158 variant and a hexa-His tag on the N-terminus, was purified using Ni-NTA chromatography, the His tag removed and stored in buffer as above.
For the human MB-COMT assay, membranes (62 ng/well) were incubated with SAM (20 μM final, CisBio) and dopamine (1.5 μM final; Sigma H8502, Diegem, Belgium) in the presence or absence of varying concentrations (typically 10 concentrations ranging from 10 ? M to 0.1 nM) of compound for 40 min at 37° C. in 384-well microtiter plates (10 ? l per well final volume). The reaction was terminated by the addition of acylation buffer and the amount of SAH produced determined according to manufacturer's instructions. Specific inhibition as that inhibited by a high concentration of tolcapone and all experiments were validated using a control curve to tolcapone.
The human S-COMT assay was performed as above except that 0.15 ng enzyme/well was incubated with SAM ([…]) and dopamine (100 μM final) for 15 min at 37° C. and SAH production determined.
HTRF readings were performed using a Perkin Elmer Envision and results expressed as concentration of SAH produced using a standard curve. Results were analyzed using non-linear regression to the 4-parameter logistic equation and pIC50 (−log 10 concentration of drug which inhibits enzyme activity/SAH production by 50%) determined.

Row | Compound | Activity range (pIC50)
1 | CCc1ccc(CN2CCn3cc(O)c(=O)cc3[C@@H]2c2ccccc2)cc1 (single isomer, unassigned) [Example 119] | +++ (three plus signs (+++) is associated with a pIC50 of above about 7)
2 | O=c1cc2n(cc1O)CCN(Cc1ccc(Br)cc1Cl)C2 [Example 63, 2-[(4-bromo-2-chloro-phenyl)methyl]-7-hydroxy-3,4-dihydro-1H-pyrido[1,2-a]pyrazin-8-one hydrochloride] | +++ (three plus signs (+++) is associated with a pIC50 of above about 7)
3 | CCc1ccc(C(C)N2CCn3cc(O)c(=O)cc3C2)cc1 (centres unmarked) [Example 16, 2-[1-(4-ethylphenyl)ethyl]-7-hydroxy-1,2,3,4-tetrahydro-8H-pyrido[1,2-a]pyrazin-8-one] | +++ (three plus signs (+++) is associated with a pIC50 of above about 7)
4 | CCC(CC)CN1CCn2cc(O)c(=O)cc2C1 [Example 20, 2-(2-ethylbutyl)-7-hydroxy-1,2,3,4-tetrahydro-8H-pyrido[1,2-a]pyrazin-8-one] | ++ (two plus signs (++) is associated with a pIC50 of from about 6 to 7)
5 | O=c1cc2n(cc1O)CCN(Cc1n[nH]c3ccccc13)C2 [Example 42, 7-hydroxy-2-(1H-indazol-3-ylmethyl)-1,2,3,4-tetrahydro-8H-pyrido[1,2-a]pyrazin-8-one] | ++ (two plus signs (++) is associated with a pIC50 of from about 6 to 7)
6 | O=c1cc2n(cc1O)CCN(Cc1ccccc1)C2 [Example 1, 2-benzyl-7-hydroxy-1,2,3,4-tetrahydro-8H-pyrido[1,2-a]pyrazin-8-one] | ++ (two plus signs (++) is associated with a pIC50 of from about 6 to 7)
7 | O=c1cc2n(cc1O)CCN(C(Cc1ccccc1)c1ccccc1)C2 (centres unmarked) [Example 88, 2-(1,2-diphenylethyl)-7-hydroxy-1,2,3,4-tetrahydro-8H-pyrido[1,2-a]pyrazin-8-one] | +++ (three plus signs (+++) is associated with a pIC50 of above about 7)
8 | O=c1cc2n(cc1O)CCN(CCn1nc3ccccc3n1)C2 [Example 5, 2-[2-(benzotriazol-2-yl)ethyl]-7-hydroxy-3,4-dihydro-1H-pyrido[1,2-a]pyrazin-8-one] | + (a single plus (+) is associated with a pIC50 of from about 4.5 to 6)
9 | O=c1cc2n(cc1O)CCN(Cc1cccc(OCc3ccccc3)c1)C2 [Example 53, 2-[3-(benzyloxy)benzyl]-7-hydroxy-1,2,3,4-tetrahydro-8H-pyrido[1,2-a]pyrazin-8-one] | +++ (three plus signs (+++) is associated with a pIC50 of above about 7)
10 | O=c1cc2n(cc1O)CCN(Cc1cccc(OC(F)(F)F)c1)C2 [Example 6, 7-hydroxy-2-[3-(trifluoromethoxy)benzyl]-1,2,3,4-tetrahydro-8H-pyrido[1,2-a]pyrazin-8-one] | +++ (three plus signs (+++) is associated with a pIC50 of above about 7)
11 | CCc1ccc(CN2CCn3cc(O)c(=O)cc3C2)cc1[N+](=O)[O-] [Example 18, 2-(4-ethyl-3-nitrobenzyl)-7-hydroxy-1,2,3,4-tetrahydro-8H-pyrido[1,2-a]pyrazin-8-one] | +++ (three plus signs (+++) is associated with a pIC50 of above about 7)
12 | O=c1cc2n(cc1O)CCN(Cc1ccc3nsnc3c1)C2 [Example 54, 2-(2,1,3-benzothiadiazol-5-ylmethyl)-7-hydroxy-1,2,3,4-tetrahydro-8H-pyrido[1,2-a]pyrazin-8-one] | ++ (two plus signs (++) is associated with a pIC50 of from about 6 to 7)
13 | CCc1ccc(CN2CCn3cc(O)c(=O)cc3C2C2CCOCC2)cc1 (centres unmarked) [Example 125, 2-(4-ethylbenzyl)-7-hydroxy-1-(tetrahydro-2H-pyran-4-yl)-1,2,3,4-tetrahydro-8H-pyrido[1,2-a]pyrazin-8-one] | +++ (three plus signs (+++) is associated with a pIC50 of above about 7)
14 | Cc1cccc2c1CCC2N1CCn2cc(O)c(=O)cc2C1 (centres unmarked) [Example 92, 7-hydroxy-2-(4-methyl-2,3-dihdyro-1H-inden-1-yl)-1,2,3,4-tetrahydro-8H-pyrido[1,2-a]pyrazin-8-one] | +++ (three plus signs (+++) is associated with a pIC50 of above about 7)
15 | O=c1cc2n(cc1O)CCN(c1ccccc1OC(F)(F)F)C2 [Example 114, 7-hydroxy-2-[2-(trifluoromethoxy)phenyl]-1,2,3,4-tetrahydro-8H-pyrido[1,2-a]pyrazin-8-one] | ++ (two plus signs (++) is associated with a pIC50 of from about 6 to 7)
16 | Cc1cccc(C)c1CN1CCn2cc(O)c(=O)cc2C1 [Example 27, 2-(2,6-dimethylbenzyl)-7-hydroxy-1,2,3,4-tetrahydro-8H-pyrido[1,2-a]pyrazin-8-one] | +++ (three plus signs (+++) is associated with a pIC50 of above about 7)
17 | Cc1cccc(N2CCn3cc(O)c(=O)cc3C2)c1 [Example 113, 7-hydroxy-2-(3-methylphenyl)-1,2,3,4-tetrahydro-8H-pyrido[1,2-a]pyrazin-8-one] | ++ (two plus signs (++) is associated with a pIC50 of from about 6 to 7)
18 | O=c1cc2n(cc1O)CCN(C1(c3ccccc3)CC1)C2 [Example 104, 7-hydroxy-2-(1-phenylcyclopropyl)-3,4-dihydro-1H-pyrido[1,2-a]pyrazin-8-one] | +++ (three plus signs (+++) is associated with a pIC50 of above about 7)
19 | CC(c1c(F)ccc(Cl)c1F)N1CCn2cc(O)c(=O)cc2C1 (centres unmarked) [Example 85, 2-[1-(3-chloro-2,6-difluorophenyl)ethyl]-7-hydroxy-1,2,3,4-tetrahydro-8H-pyrido[1,2-a]pyrazin-8-one] | +++ (three plus signs (+++) is associated with a pIC50 of above about 7)
20 | O=c1cc2n(cc1O)CCN(Cc1cccc(Oc3ccccc3)c1)C2 [Example 36, 7-hydroxy-2-(3-phenoxybenzyl)-1,2,3,4-tetrahydro-8H-pyrido[1,2-a]pyrazin-8-one] | +++ (three plus signs (+++) is associated with a pIC50 of above about 7)
21 | O=c1cc2n(cc1O)CCN(CCCc1ccccc1)C2 [Example 30, 7-hydroxy-2-(3-phenylpropyl)-1,2,3,4-tetrahydro-8H-pyrido[1,2-a]pyrazin-8-one] | ++ (two plus signs (++) is associated with a pIC50 of from about 6 to 7)
22 | O=c1cc2n(cc1O)CCN(c1cccc3ncccc13)C2 [Example 110, 7-hydroxy-2-(5-quinolyl)-3,4-dihydro-1H-pyrido[1,2-a]pyrazin-8-one] | + (a single plus (+) is associated with a pIC50 of from about 4.5 to 6)
23 | O=c1cc2n(cc1O)CCN(C1CC(c3ccccc3)Oc3ccccc31)C2 (centres unmarked) [Example 80, 7-hydroxy-2-(2-phenyl-3,4-dihydro-2H-chromen-4-yl)-1,2,3,4-tetrahydro-8H-pyrido[1,2-a]pyrazin-8-one] | ++ (two plus signs (++) is associated with a pIC50 of from about 6 to 7)
24 | O=c1cc2n(cc1O)CCN(Cc1ccc(-c3cccnc3)cc1)C2 [Example 12, 7-hydroxy-2-[4-(pyridin-3-yl)benzyl]-1,2,3,4-tetrahydro-8H-pyrido[1,2-a]pyrazin-8-one] | ++ (two plus signs (++) is associated with a pIC50 of from about 6 to 7)
25 | O=c1cc2n(cc1O)CCN(Cc1ccccc1)C2Cc1ccccc1 (centres unmarked) [Example 115, 1,2-dibenzyl-7-hydroxy-1,2,3,4-tetrahydro-8H-pyrido[1,2-a]pyrazin-8-one] | ++ (two plus signs (++) is associated with a pIC50 of from about 6 to 7)
26 | O=c1cc2n(cc1O)CCN(Cc1ccc(C3CC3)cc1)C2 [Example 23, 2-(4-cyclopropylbenzyl)-7-hydroxy-1,2,3,4-tetrahydro-8H-pyrido[1,2-a]pyrazin-8-one] | +++ (three plus signs (+++) is associated with a pIC50 of above about 7)
27 | O=c1cc2n(cc1O)CCN(Cc1ccc(Cl)c(Cl)c1)C2 [Example 25, 2-(3,4-dichlorobenzyl)-7-hydroxy-1,2,3,4-tetrahydro-8H-pyrido[1,2-a]pyrazin-8-one] | +++ (three plus signs (+++) is associated with a pIC50 of above about 7)
28 | CC(c1ccccc1)N1CCn2cc(O)c(=O)cc2C1 (centres unmarked) [Example 15, 7-hydroxy-2-(1-phenylethyl)-1,2,3,4-tetrahydro-8H-pyrido[1,2-a]pyrazin-8-one] | ++ (two plus signs (++) is associated with a pIC50 of from about 6 to 7)
29 | CCc1ccc(CN2CCn3cc(O)c(=O)c(Br)c3C2)cc1 [Example 138, 9-bromo-2-(4-ethylbenzyl)-7-hydroxy-1,2,3,4-tetrahydro-8H-pyrido[1,2-a]pyrazin-8-one] | +++ (three plus signs (+++) is associated with a pIC50 of above about 7)
